In paper PMC4148173 (Journal of Medicinal Chemistry, 2014):

Assays:
[1] = target: human D2LR (Homo sapiens, UniProt P14416); experiment: [125I]IABN displacement binding, HEK cell membranes expressing human D2LR
[2] = target: T1, human D3R (Homo sapiens, UniProt P35462); experiment: β-Arrestin-2 recruitment assay; format: cell-based; conditions: for D3R IC50 ± SEM: inhibition of (+)-PD128907-induced arrestin translocation in U2OS cells expressing D3R; for selectivity ratio (D2R IC50)/(D3R IC50): β-arrestin-2 recruitment antagonist selectivity
[3] = target: T1, human D3R; experiment: [125I]IABN displacement binding, HEK cell membranes expressing human D3R
[4] = target: T1, human D3R; experiment: [35S]GTPγS binding assay, CHO-hD3 membranes; format: biochemical; conditions: for stimulation of [35S]GTPγS binding, D3R: agonist test; for inhibition of basal [35S]GTPγS binding at D3R: up to 1 μM concentration; for inhibition at 10 µM: read-out: inhibition of D3R basal [35S]GTPγS binding
[5] = target: human D2R (Homo sapiens, UniProt P14416); experiment: [35S]GTPγS binding assay, CHO-hD2 membranes; format: biochemical; conditions: for stimulation of [35S]GTPγS binding, D2R: agonist test; for inhibition of basal [35S]GTPγS binding at D2R: up to 1 μM concentration
[6] = tested on: rats; conditions: cited from earlier work
[7] = target: human D2L receptors (Homo sapiens, UniProt P14416); experiment: β-Arrestin-2 recruitment assay; format: cell-based; conditions: standard agonist
Sequence of human D2L receptors (P14416 whole entry): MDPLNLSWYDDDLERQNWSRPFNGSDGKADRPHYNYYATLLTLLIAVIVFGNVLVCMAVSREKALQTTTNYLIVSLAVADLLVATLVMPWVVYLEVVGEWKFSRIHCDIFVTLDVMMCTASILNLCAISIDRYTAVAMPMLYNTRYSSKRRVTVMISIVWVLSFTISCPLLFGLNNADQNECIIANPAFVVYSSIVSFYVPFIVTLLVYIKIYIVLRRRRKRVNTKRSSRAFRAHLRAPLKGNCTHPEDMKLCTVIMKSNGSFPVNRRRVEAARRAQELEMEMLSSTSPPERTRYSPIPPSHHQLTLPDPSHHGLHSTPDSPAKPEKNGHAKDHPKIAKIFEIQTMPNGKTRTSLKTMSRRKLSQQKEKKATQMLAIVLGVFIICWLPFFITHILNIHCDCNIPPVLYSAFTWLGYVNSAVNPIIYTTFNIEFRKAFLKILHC

T1 sequence (P35462 whole entry): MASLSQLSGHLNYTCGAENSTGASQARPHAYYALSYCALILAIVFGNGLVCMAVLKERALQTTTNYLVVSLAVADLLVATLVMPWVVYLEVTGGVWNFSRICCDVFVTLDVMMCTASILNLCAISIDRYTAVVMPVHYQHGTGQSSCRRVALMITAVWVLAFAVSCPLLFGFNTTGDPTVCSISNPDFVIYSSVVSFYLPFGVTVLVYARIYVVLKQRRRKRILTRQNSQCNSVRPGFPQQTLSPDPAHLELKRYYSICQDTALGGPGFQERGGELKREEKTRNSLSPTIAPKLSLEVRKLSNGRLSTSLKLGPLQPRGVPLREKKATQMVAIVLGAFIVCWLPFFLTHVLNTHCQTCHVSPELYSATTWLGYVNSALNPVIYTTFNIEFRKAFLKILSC
Sequence of human D2R (P14416 whole entry): as the sequence (P14416 whole entry) above
Sequence of human D2LR (P14416 whole entry): as above

Row | SMILES | D3R IC50 ± SEM [2] | Kb [4] | stimulation of [35S]GTPγS binding, D3R [4] | inhibition of basal [35S]GTPγS binding at D3R [4] | Kb [5] | stimulation of [35S]GTPγS binding, D2R [5] | inhibition of basal [35S]GTPγS binding at D2R [5] | inhibition at 10 µM [4] | other results
1 | COc1ccccc1N1CCN(CCCCNC(=O)c2cn3ccccc3n2)CC1 [Compound 7, N-(4-(4-(2-Methoxyphenyl)piperazin-1-yl)butyl)imidazo[1,2-a]pyridine-2-carboxamide] | subnanomolar |  |  |  |  |  |  |  | higher affinity at D2R ([1]; compared to compound 6): ~10 fold; enhancement in affinity at the D3R ([3]; compared to compound 6): ~3 fold
2 | O=C(NCCCCN1CCN(c2cccc(Cl)c2Cl)CC1)c1cn2ccccc2n1 [Compound 8, N-(4-(4-(2,3-Dichlorophenyl)piperazin-1-yl)butyl)imidazo[1,2-a]pyridine-2-carboxamide] | subnanomolar | 0.0038 ± 0.0013 nM | did not stimulate | less than 30% | 1.1 ± 0.2 nM | did not stimulate | less than 30% |  | selectivity ratio (D2R IC50)/(D3R IC50) [2]: > 400
3 | CC(C)(C)c1nc(N2CCN(CCCCNC(=O)c3cn4ccccc4n3)CC2)cc(C(F)(F)F)n1 [Compound 25, N-(4-(4-(2-(tert-Butyl)-6-(trifluoromethyl)pyrimidin-4-yl)piperazin-1-yl)butyl)imidazo[1,2-a]pyridine-2-carboxamide] | subnanomolar | 1.3 ± 0.4 nM | did not stimulate | less than 30% | 111 ± 25 nM | did not stimulate | less than 30% | 40 to 60% | selectivity ratio (D2R IC50)/(D3R IC50) [2]: > 400; cocaine self-administration, cocaine reward, cue-induced reinstatement of cocaine-seeking, cocaine-induced place preference ([6]; rat models): significantly attenuating; effect on food reward or spontaneous locomotor activity ([6]; rats, at doses decreasing cocaine effects): no effect; cocaine reward, cocaine seeking, preference for cocaine-associated environments, and cocaine induced locomotor activity ([6]; rats): significant decreases; selectivity ratio (D2R Ki/D3R Ki) ([3]; Table 1, binding selectivity): > 100
4 | CC(C)(C)c1nc(N2CCN(CCCCNC(=O)c3cc4ccccc4[nH]3)CC2)cc(C(F)(F)F)n1 [Compound 26, N-(4-(4-(2-(tert-Butyl)-6-(trifluoromethyl)pyrimidin-4-yl)piperazin-1-yl)butyl)-1H-indole-2-carboxamide] |  |  |  |  |  |  |  |  | lower binding potency at D2R ([1]; compared to compound 25): 1.8 fold; lower binding potency at D3R ([3]; compared to compound 25): 2.6 fold
5 | CC(C)(C)c1nc(N2CCN(CCCCNC(=O)c3cn4ccncc4n3)CC2)cc(C(F)(F)F)n1 [Compound 30, N-(4-(4-(2-(tert-Butyl)-6-(trifluoromethyl)pyrimidin-4-yl)piperazin-1-yl)butyl)imidazo[1,2-a]pyrazine-2-carboxamide] |  | 0.33 ± 0.05 nM | did not stimulate | less than 30% | 25 ± 6 nM | did not stimulate | less than 30% | 40 to 60% | 
6 | CC(C)(C)c1nc(N2CCN(CCCCNC(=O)[C@H]3CC[C@H](c4ccccc4)CC3)CC2)cc(C(F)(F)F)n1 [Compound 39, trans-N-(4-(4-(2-(tert-Butyl)-6-(trifluoromethyl)pyrimidin-4-yl)piperazin-1-yl)butyl)-4-phenylcyclohexanecarboxamide] |  |  | did not stimulate | less than 30% |  | did not stimulate | less than 30% | 40 to 60% | 
7 | CCCN1CCO[C@@H]2c3cc(O)ccc3OC[C@H]21 [PD128907, reference compound] |  |  |  |  |  |  |  |  | agonist EC80 dose, D3R ([2]; β-arrestin recruitment, standard agonist): 8 nM
8 | CCCN1C[C@H](CSC)C[C@@H]2c3cccc4[nH]cc(c34)C[C@H]21 [pergolide] |  |  |  |  |  |  |  |  | agonist EC80 dose, D2R [7]: 6 nM
